Measured values published in patent publication US8163793B2, “Proline derivatives” (Hoffman-La Roche Inc., priority 2009, dated 2012).
Structures can show the parent of a compound that is named as a salt.

Experiments:
Cathepsin S = Cathepsin S (UniProt P25774); experiment: Cathepsin enzyme inhibition assay (fluorogenic peptide substrate Z-Val-Val-Arg-AMC), Cathepsin S; format: biochemical, human and mouse; details: enzyme 1 nM, substrate 20 μM, pH 6.5; read-out: CatS IC50
In short: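 Human or mouse cathepsin S (1 nM) was run in 100 mM potassium phosphate pH 6.5 with 5 mM EDTA, 0.001% Triton X-100 and 5 mM DTT. The rise in AMC fluorescence from cleavage was measured, and IC50 values were calculated by standard methods and expressed in μM.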

Cat L = Cat L (UniProt P07711); experiment: Cathepsin enzyme inhibition assay (fluorogenic peptide substrate Z-Val-Val-Arg-AMC), Cathepsin L; format: biochemical, human and mouse; details: enzyme 1 nM, substrate 20 μM, pH 6.5; read-out: CatL IC50
In short: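 Cathepsin L at 1 nM was mixed with compound, then started with 20 μM Z-Val-Val-Arg-AMC in pH 6.5 potassium phosphate with EDTA, Triton X-100 and 5 mM DTT. AMC fluorescence (ex 360/em 465 nm) was followed over 20 min. IC50 is given in μM.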

Structure (SMILES)	IC50 (Cathepsin S) [nM]	IC50 (Cat L) [nM]
COCCOc1ccc(S(=O)(=O)[C@@H]2C[C@@H](C(=O)NC3(C#N)CC3)N(c3cc(C)nn3C3CCC3)C2)c(Cl)c1 [Example 489, (2S,4R)-4-[2-Chloro-4-(2-methoxy-ethoxy)-benzenesulfonyl]-1-(2-cyclobutyl-5-methyl-2H-pyrazol-3-yl)-pyrrolidine-2-carboxylic acid (1-cyano-cyclopropyl)-amide]	0.51	3540
Cc1cc(N2C[C@H](S(C)(=O)=O)C[C@H]2C(=O)NC2(C#N)CC2)n(CCc2ccccc2)n1 [Example 448, (2S,4R)-4-Methanesulfonyl-1-(5-methyl-2-phenethyl-2H-pyrazol-3-yl)-pyrrolidine-2-carboxylic acid (1-cyano-cyclopropyl)-amide]	8370	≥ 25000
Cc1cc(Cl)ccc1S(=O)(=O)[C@H]1CN[C@H](C(=O)NC2(C#N)CC2)C1 [Example 50, (2S,4R)-4-(4-Chloro-2-methyl-benzenesulfonyl)-pyrrolidine-2-carboxylic acid (1-cyano-cyclopropyl)-amide Hydrochloride]	4.4	8770
Cc1cc(N2C[C@H](S(=O)(=O)c3ccccc3Cl)C[C@H]2C(=O)NC2(C#N)CC2)n(C2CCC2)n1 [Example 353, (2S,4R)-4-(2-Chloro-benzenesulfonyl)-1-(2-cyclobutyl-5-methyl-2H-pyrazol-3-yl)-pyrrolidine-2-carboxylic acid (1-cyano-cyclopropyl)-amide]	0.99	13500
N#CC1(NC(=O)[C@H]2CC(S(=O)(=O)c3ccccc3Cl)CN2C(=O)C(NCC(F)(F)F)c2ccc(Cl)cc2)CC1 (stereo partly drawn) [Example 421, (R)-4-(2-Chloro-benzenesulfonyl)-1-[2-(4-chloro-phenyl)-2-(2,2,2-trifluoro-ethylamino)-acetyl]-pyrrolidine-2-carboxylic acid (1-cyano-cyclopropyl)-amide]	11.5	4950
N#CC1(NC(=O)[C@@H]2C[C@@H](S(=O)(=O)c3ccccc3Cl)CN2C2CCCCC2)CC1 [Example 85, (2S,4R)-4-(2-Chloro-benzenesulfonyl)-1-cyclohexyl-pyrrolidine-2-carboxylic acid (1-cyano-cyclopropyl)-amide]	9.4	≥ 25000
N#CCNC(=O)[C@@H]1C[C@@H](S(=O)(=O)c2ccccc2Cl)CN1C1CCOCC1 [Example 64, (2S,4R)-4-(2-Chloro-benzenesulfonyl)-1-(tetrahydro-pyran-4-yl)-pyrrolidine-2-carboxylic acid cyanomethyl-amide]	109	≥ 25000
Cc1cc(N2C[C@H](S(=O)(=O)c3ccc(F)cc3C(F)(F)F)C[C@H]2C(=O)NC2(C#N)CC2)n(-c2ccc(C(F)(F)F)cc2)n1 [Example 267, (2S,4R)-4-(4-Fluoro-2-trifluoromethyl-benzenesulfonyl)-1-[5-methyl-2-(4-trifluoromethyl-phenyl)-2H-pyrazol-3-yl]-pyrrolidine-2-carboxylic acid (1-cyano-cyclopropyl)-amide]	2.3	7810
CC(C)(C)OC(=O)N1C[C@H](S(=O)(=O)c2ccccc2C(F)(F)F)C[C@H]1C(=O)NC(C#N)C1CC1 (stereo partly drawn) [Example 38, (2S,4R)-2-[(Cyano-cyclopropyl-methyl)-carbamoyl]-4-(2-trifluoromethyl-benzenesulfonyl)-pyrrolidine-1-carboxylic acid tert-butyl ester]	5	≥ 25000
N#CC1(NC(=O)[C@@H]2C[C@@H](S(=O)(=O)c3ccc(N4CCOCC4)cc3Cl)CN2C(=O)C2(C(F)(F)F)CC2)CC1 [Example 161, (2S,4R)-4-(2-Chloro-4-morpholin-4-yl-benzenesulfonyl)-1-(1-trifluoromethyl-cyclopropanecarbonyl)-pyrrolidine-2-carboxylic acid (1-cyano-cyclopropyl)-amide]	0.4	6070
Cc1cc(N2C[C@H](S(=O)(=O)c3ccc(-c4ccncn4)cc3C(F)(F)F)C[C@H]2C(=O)NC2(C#N)CC2)n(C2CCC2)n1 [Example 419, (2S,4R)-1-(2-Cyclobutyl-5-methyl-2H-pyrazol-3-yl)-4-(4-pyrimidin-4-yl-2-trifluoromethyl-benzenesulfonyl)-pyrrolidine-2-carboxylic acid (1-cyano-cyclopropyl)-amide]	0.415	16900
N#Cc1cccc(N2CC(S(=O)(=O)c3ccccc3C(F)(F)F)CC2C(=O)NC2(C#N)CC2)c1 (stereo not drawn) [Example 358, 1-(3-Cyano-phenyl)-4-(2-trifluoromethyl-benzenesulfonyl)-pyrrolidine-2-carboxylic acid (1-cyano-cyclopropyl)-amide]	0.5	≥ 25000
CC(=O)N1C[C@H](S(=O)(=O)c2ccccc2Cl)C[C@H]1C(=O)NC1(C#N)CC1 [Example 79, (2S,4R)-1-Acetyl-4-(2-chloro-benzenesulfonyl)-pyrrolidine-2-carboxylic acid (1-cyano-cyclopropyl)-amide]	1.4	29700
C=CCOc1ccccc1S(=O)(=O)[C@H]1CN[C@H](C(=O)NC2(C#N)CC2)C1 [Example 453, (2S,4R)-4-(2-Allyloxy-benzenesulfonyl)-pyrrolidine-2-carboxylic acid (1-cyano-cyclopropyl)-amide]	845	≥ 25000
CC(C(=O)N1C[C@H](S(=O)(=O)c2ccccc2Cl)C[C@H]1C(=O)NC1(C#N)CC1)c1ccc(Cl)cc1 (stereo partly drawn) [Example 431]	0.875	130

More lines, in order of falling IC50 (Cathepsin S), values ahead:

IC50 (Cathepsin S) [nM]	IC50 (Cat L) [nM]	Structure (SMILES)
0.4	≥ 25000	CC(C)(C)C(=O)N1C[C@H](S(=O)(=O)c2ccc(F)cc2C(F)(F)F)C[C@H]1C(=O)NC1(C#N)CC1 [Example 210, (2S,4R)-1-(2,2-Dimethyl-propionyl)-4-(4-fluoro-2-trifluoromethyl-benzenesulfonyl)-pyrrolidine-2-carboxylic acid (1-cyano-cyclopropyl)-amide]
0.37	1680	N#CC1(NC(=O)[C@@H]2C[C@@H](S(=O)(=O)c3ccc(OCC(F)(F)F)cc3Cl)CN2C(=O)C2(c3ccc(Cl)cc3)CCCCC2)CC1 [Example 314, (2S,4R)-1-[1-(4-Chloro-phenyl)-cyclohexanecarbonyl]-4-[2-chloro-4-(2,2,2-trifluoro-ethoxy)-benzenesulfonyl]-pyrrolidine-2-carboxylic acid (1-cyano-cyclopropyl)-amide]
0.3	5240	N#CC1(NC(=O)[C@@H]2C[C@@H](S(=O)(=O)c3ccccc3Cl)CN2S(=O)(=O)c2ccc(-c3ccccc3)cc2)CC1 [Example 316, (2S,4R)-1-(Biphenyl-4-sulfonyl)-4-(2-chloro-benzenesulfonyl)-pyrrolidine-2-carboxylic acid (1-cyano-cyclopropyl)-amide]
0.295	102	C[C@H](Oc1ccc(S(=O)(=O)[C@@H]2C[C@@H](C(=O)NC3(C#N)CC3)N(C(=O)C3(c4ccc(Cl)nc4)CC3)C2)c(Cl)c1)C(F)(F)F [Example 381, (2S,4R)-1-[1-(6-Chloro-pyridin-3-yl)-cyclopropanecarbonyl]-4-[2-chloro-4-((S)-2,2,2-trifluoro-1-methyl-ethoxy)-benzenesulfonyl]-pyrrolidine-2-carboxylic acid (1-cyano-cyclopropyl)-amide]
0.26	220	N#CC1(NC(=O)[C@@H]2C[C@@H](S(=O)(=O)c3ccc(OCC(F)(F)F)cc3Cl)CN2C(=O)C2(c3ccc(C(F)(F)F)cc3)CC2)CC1 [Example 310, (2S,4R)-4-[2-Chloro-4-(2,2,2-trifluoro-ethoxy)-benzenesulfonyl]-1-[1-(4-trifluoromethyl-phenyl)-cyclopropanecarbonyl]-pyrrolidine-2-carboxylic acid (1-cyano-cyclopropyl)-amide]
0.22	16700	Cc1cc(N2C[C@H](S(=O)(=O)c3ccc(OCC(F)(F)F)cc3C(F)(F)F)C[C@H]2C(=O)NC2(C#N)CC2)n(C2CCC2)n1 [Example 391, (2S,4R)-1-(2-Cyclobutyl-5-methyl-2H-pyrazol-3-yl)-4-[4-(2,2,2-trifluoro-ethoxy)-2-trifluoromethyl-benzenesulfonyl]-pyrrolidine-2-carboxylic acid (1-cyano-cyclopropyl)-amide]
0.08	44.3	COCCN1CCN(c2ccc(S(=O)(=O)[C@@H]3C[C@@H](C(=O)NC4(C#N)CC4)N(C(=O)C4(c5ccc(Cl)nc5)CC4)C3)c(Cl)c2)CC1 [Example 372, (2S,4R)-4-{2-Chloro-4-[4-(2-methoxy-ethyl)-piperazin-1-yl]-benzenesulfonyl}-1-[1-(6-chloro-pyridin-3-yl)-cyclopropanecarbonyl]-pyrrolidine-2-carboxylic acid (1-cyano-cyclopropyl)-amide; Compound with Formic Acid]
0.07	463	N#CC1(NC(=O)[C@@H]2C[C@@H](S(=O)(=O)c3ccccc3Cl)CN2C(=O)C2(c3ccc(Cl)c(Cl)c3)CC2)CC1 [Example 284, (2S,4R)-4-(2-Chloro-benzenesulfonyl)-1-[1-(3,4-dichloro-phenyl)-cyclopropanecarbonyl]-pyrrolidine-2-carboxylic acid (1-cyano-cyclopropyl)-amide]
0.02	1310	CC(C)(C(=O)N1C[C@H](S(=O)(=O)c2ccc(OCC(F)(F)F)cc2Cl)C[C@H]1C(=O)NC1(C#N)CC1)c1ccc(Cl)cc1 [Example 279, (2S,4R)-1-[2-(4-Chloro-phenyl)-2-methyl-propionyl]-4-[2-chloro-4-(2,2,2-trifluoro-ethoxy)-benzenesulfonyl]-pyrrolidine-2-carboxylic acid (1-cyano-cyclopropyl)-amide]
